The values that follow come from ChEMBL document CHEMBL5036340 (Eur J Med Chem, 2021).

A short description of one data set: in vitro. The conditions noted are these: rat, HepG2 cells.
The next data set addresses Butyrylcholinesterase (Rattus norvegicus, UniProt Q9JKC1).
The subject of another data set is HepG2. Description: cells. Format: functional, cell-based. Particulars: Homo sapiens, HepG2, 24 h.
The target in a further data set is T1, Acetylcholinesterase (Rattus norvegicus, UniProt P37136).
T1 sequence (P37136 whole entry): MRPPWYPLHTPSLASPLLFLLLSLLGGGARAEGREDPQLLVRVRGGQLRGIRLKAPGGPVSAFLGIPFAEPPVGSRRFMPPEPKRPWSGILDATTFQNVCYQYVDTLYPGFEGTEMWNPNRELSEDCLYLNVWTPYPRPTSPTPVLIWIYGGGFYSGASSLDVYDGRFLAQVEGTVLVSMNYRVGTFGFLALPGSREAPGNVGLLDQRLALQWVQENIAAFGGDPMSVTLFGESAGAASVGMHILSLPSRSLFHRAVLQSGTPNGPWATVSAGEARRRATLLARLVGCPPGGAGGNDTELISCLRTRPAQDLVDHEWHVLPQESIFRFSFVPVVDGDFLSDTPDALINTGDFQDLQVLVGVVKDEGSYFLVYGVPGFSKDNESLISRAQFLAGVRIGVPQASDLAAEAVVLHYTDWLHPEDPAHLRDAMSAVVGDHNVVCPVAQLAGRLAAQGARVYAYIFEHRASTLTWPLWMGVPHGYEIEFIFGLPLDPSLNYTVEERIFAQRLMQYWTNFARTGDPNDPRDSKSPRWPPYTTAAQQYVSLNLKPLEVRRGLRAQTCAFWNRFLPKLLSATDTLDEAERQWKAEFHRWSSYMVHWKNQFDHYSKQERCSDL
In words: Inhibition of rat cortex AChE using acetylthiocholine iodide as substrate by Ellman's method. (In general: Ellman's reagent forms a yellow product with free thiols.)

The target of data set [1] is Voltage-gated inwardly rectifying potassium channel KCNH2 (Homo sapiens, UniProt Q12809).
Chain of Voltage-gated inwardly rectifying potassium channel KCNH2 (Q12809 whole entry): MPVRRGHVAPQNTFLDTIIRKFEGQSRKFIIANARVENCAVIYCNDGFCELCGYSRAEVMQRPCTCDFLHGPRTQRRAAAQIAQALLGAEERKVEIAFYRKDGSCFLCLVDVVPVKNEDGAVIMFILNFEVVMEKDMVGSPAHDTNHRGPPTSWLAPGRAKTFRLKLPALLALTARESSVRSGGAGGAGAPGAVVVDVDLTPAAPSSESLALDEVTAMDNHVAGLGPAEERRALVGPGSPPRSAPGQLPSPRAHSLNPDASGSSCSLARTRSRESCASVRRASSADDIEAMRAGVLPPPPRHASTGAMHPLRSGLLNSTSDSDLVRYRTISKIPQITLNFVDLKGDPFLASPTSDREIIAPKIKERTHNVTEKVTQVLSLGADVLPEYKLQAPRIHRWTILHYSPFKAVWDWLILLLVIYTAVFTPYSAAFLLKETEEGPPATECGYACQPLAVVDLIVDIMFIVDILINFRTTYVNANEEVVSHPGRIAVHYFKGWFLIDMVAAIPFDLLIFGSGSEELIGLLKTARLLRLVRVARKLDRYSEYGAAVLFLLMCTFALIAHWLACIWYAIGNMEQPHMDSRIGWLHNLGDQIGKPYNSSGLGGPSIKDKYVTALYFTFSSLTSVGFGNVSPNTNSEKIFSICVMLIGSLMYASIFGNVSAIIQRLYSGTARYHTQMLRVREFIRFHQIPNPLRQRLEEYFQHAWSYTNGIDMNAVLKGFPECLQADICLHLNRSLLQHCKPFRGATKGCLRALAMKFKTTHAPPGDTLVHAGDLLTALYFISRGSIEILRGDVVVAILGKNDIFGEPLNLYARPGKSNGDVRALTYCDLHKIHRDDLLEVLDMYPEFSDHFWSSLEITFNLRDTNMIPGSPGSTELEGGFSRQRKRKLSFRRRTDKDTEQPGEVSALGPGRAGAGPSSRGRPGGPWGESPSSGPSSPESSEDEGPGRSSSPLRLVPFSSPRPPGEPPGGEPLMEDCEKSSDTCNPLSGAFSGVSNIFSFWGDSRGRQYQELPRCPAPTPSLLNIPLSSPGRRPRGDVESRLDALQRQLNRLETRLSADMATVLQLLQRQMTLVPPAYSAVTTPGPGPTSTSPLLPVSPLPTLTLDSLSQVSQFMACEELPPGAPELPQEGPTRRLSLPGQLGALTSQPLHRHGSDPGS
Description: Inhibition of hERG expressed in CHO-K1 cells assessed as reduction in thallium influx incubated for 30 minutes by FLIPR
Data set [2] in a line: Terminal half life in C57BL/6 mouse kidney at 10 mg/kg, po administered as single dose by UPLC analysis. Type of data set: ADME, organism-based. Particulars: read-out: beta t1/2 (converted).
The nature of data set [3]: AUC (0 to infinity) in C57BL/6 mouse brain at 10 mg/kg, po administered as single dose measured upto 24 hrs by UPLC analysis. Format: ADME, organism-based. Also noted: route oral, dose 10 mg/kg, time <=24. Particulars: in vivo.
Data set [4] in a line: Drug concentration in C57BL/6 mouse muscle at 10 mg/kg, po administered as single dose by UPLC analysis. Type of data set: ADME, organism-based, Muscle tissue. Particulars: in vivo.
A short description of data set [5]: AUC (0 to infinity) in C57BL/6 mouse plasma at 10 mg/kg, po administered as single dose measured upto 24 hrs by UPLC analysis. Type of data set: ADME, organism-based. The arrangement: route oral, dose 10 mg/kg, time <=24. Particulars: in vivo.
Data set [6] can be described thus: MRT (0 to infinity) in C57BL/6 mouse kidney at 10 mg/kg, po administered as single dose by UPLC analysis. Type of data set: ADME, organism-based.
The nature of data set [7]: Terminal half life in C57BL/6 mouse plasma at 10 mg/kg, po administered as single dose measured upto 24 hrs by UPLC analysis. Format: ADME, organism-based. The conditions noted are these: read-out: beta t1/2 (converted).
The nature of data set [8]: MRT (0 to infinity) in C57BL/6 mouse plasma at 10 mg/kg, po administered as single dose measured upto 24 hrs by UPLC analysis. Format: ADME, organism-based.
The nature of data set [9]: MRT (0 to infinity) in C57BL/6 mouse liver at 10 mg/kg, po administered as single dose by UPLC analysis. Format: ADME, organism-based.
Data set [10] is described as follows: Tmax in C57BL/6 mouse kidney at 10 mg/kg, po administered as single dose by UPLC analysis. Type of data set: ADME, organism-based.
A short description of data set [11]: Cmax in C57BL/6 mouse plasma at 10 mg/kg, po administered as single dose measured at 2.25 hrs by UPLC analysis. The arrangement: route oral, dose 10 mg/kg, time 2.25 hrs. Type of data set: ADME, organism-based.
Data set [12] is described as follows: Tmax in C57BL/6 mouse plasma at 10 mg/kg, po administered as single dose measured upto 24 hrs by UPLC analysis. Type of data set: ADME, organism-based.
Data set [13] can be described thus: Cmax in C57BL/6 mouse liver at 10 mg/kg, po administered as single dose measured at 1.75 hrs by UPLC analysis. Type of data set: ADME, organism-based. The arrangement: route oral, time 1.75 hrs, dose 10 mg/kg.
A short description of data set [14]: Tmax in C57BL/6 mouse brain at 10 mg/kg, po administered as single dose measured upto 24 hrs by UPLC analysis. Type of data set: ADME, organism-based.
Data set [15] in a line: Tmax in C57BL/6 mouse liver at 10 mg/kg, po administered as single dose by UPLC analysis. Format: ADME, organism-based.
The nature of data set [16]: Terminal half life in C57BL/6 mouse liver at 10 mg/kg, po administered as single dose by UPLC analysis. Type of data set: ADME, organism-based. The conditions noted are these: read-out: beta t1/2 (converted).
Data set [17] is described as follows: Cmax in C57BL/6 mouse kidney at 10 mg/kg, po administered as single dose measured at 2.50 hrs by UPLC analysis. Type of data set: ADME, organism-based. Also noted: route oral, time 2.5 hrs, dose 10 mg/kg.
A further data set has as its system Hippocampus. In words: Anti-alzheimer activity in theta-burst stimulated C57BL/6 mouse hippocampus CA3 region assessed as enhancement of synaptic strength by measuring long term potentiation in brain slice at 3 mg/kg, po for 4 days by electrophysiological recording relative to control. Particulars: time 4.0 day. Type of data set: functional, organism-based.
The species entered for a further data set is Mus musculus. Description: Anti-alzheimer activity in C57BL/6 mouse assessed as decrease in pirenzepine induced LTP at 1 microM pretreated for 90 mins and further incubated with pirenzepine for 30 mins followed by high frequency stimulation by electrophysiological recording. Type of data set: functional, organism-based. Particulars: time 120.0 min.
A short description of data set [18]: AUC (0 to infinity) in C57BL/6 mouse kidney at 10 mg/kg, po administered as single dose by UPLC analysis. Format: ADME, organism-based. Also noted: route oral, time infinity, dose 10 mg/kg. The conditions noted are these: in vivo.
A short description of data set [19]: Terminal half life in C57BL/6 mouse brain at 10 mg/kg, po administered as single dose measured upto 24 hrs by UPLC analysis. Format: ADME, organism-based. Particulars: read-out: beta t1/2 (converted).
Data set [20] can be described thus: AUC (0 to infinity) in C57BL/6 mouse liver at 10 mg/kg, po administered as single dose by UPLC analysis. Type of data set: ADME, organism-based. The arrangement: time infinity, route oral, dose 10 mg/kg. The conditions noted are these: in vivo.
For data set [21], the target named is T2, Acetylcholinesterase (Rattus norvegicus) (UniProt P37136).
T2 sequence (whole entry): T1 sequence (P37136 whole entry)
In words: Mixed-type inhibition of rat cortex AChE at 0.5 to 1.5 nM using varying levels of acetylthiocholine iodide as substrate measured at 5 minutes by Ellman's method based Lineweaver-Burk plot analysis. Particulars: dose 0.5-1.5 nM.

Data set [22] in a line: Cmax in C57BL/6 mouse brain at 10 mg/kg, po administered as single dose measured at […] by UPLC analysis. Format: ADME, organism-based.
Data set [23] in a line: MRT (0 to infinity) in C57BL/6 mouse brain at 10 mg/kg, po administered as single dose measured upto 24 hrs by UPLC analysis. Type of data set: ADME, organism-based.
Data set [24] can be described thus: AUC (0 to t) in C57BL/6 mouse plasma at 10 mg/kg, po administered as single dose measured upto 24 hrs by UPLC analysis. Format: ADME, organism-based. Also noted: route oral, dose 10 mg/kg, time <=24. The conditions noted are these: in vivo.

pIC50: −log10 of the molar value. The source made the active and inactive calls. No cut-off for these calls is given here.

Chain of Butyrylcholinesterase (Q9JKC1 whole entry): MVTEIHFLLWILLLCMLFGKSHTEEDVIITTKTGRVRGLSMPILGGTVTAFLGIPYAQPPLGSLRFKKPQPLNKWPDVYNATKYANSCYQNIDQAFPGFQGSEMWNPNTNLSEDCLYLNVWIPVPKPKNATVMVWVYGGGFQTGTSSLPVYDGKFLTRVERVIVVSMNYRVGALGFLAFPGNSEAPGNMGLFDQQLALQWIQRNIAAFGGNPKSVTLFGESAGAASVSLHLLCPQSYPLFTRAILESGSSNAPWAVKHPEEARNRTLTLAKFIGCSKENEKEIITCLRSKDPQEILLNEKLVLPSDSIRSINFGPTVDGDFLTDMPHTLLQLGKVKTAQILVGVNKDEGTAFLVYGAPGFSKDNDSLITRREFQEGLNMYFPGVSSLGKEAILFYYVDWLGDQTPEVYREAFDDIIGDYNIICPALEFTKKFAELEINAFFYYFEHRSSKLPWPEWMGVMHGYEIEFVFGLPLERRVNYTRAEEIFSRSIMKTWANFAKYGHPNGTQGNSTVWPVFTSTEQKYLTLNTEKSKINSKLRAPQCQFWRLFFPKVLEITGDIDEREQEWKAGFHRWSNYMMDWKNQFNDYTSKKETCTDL
Description for Butyrylcholinesterase: Inhibition of rat serum BChE using butyrylthiocholine iodide as substrate by Ellman's method
Description for HepG2: Cytotoxicity against human HepG2 cells assessed as reduction in cell viability incubated for 24 hrs by MTT assay
Description for in vitro: Ratio of IC50 for cytotoxicity against human HepG2 cells to ratio of IC50 for inhibition of rat cortex AChE

With `O=c1ccc2c([nH]1)CCC(NCCCCCCCNc1c3c(nc4cc(Cl)ccc14)CCCC3)C2` (configuration not stated), in “in vitro”, the selectivity ratio worked out at 2660. The pIC50 (commonly the IC50 on a negative log10 scale, so that one unit is a factor of ten) against Butyrylcholinesterase is 6.05; in the data set with HepG2 it was 4.41; on Acetylcholinesterase, 7.83; in [1], 5.20.
As for `O=c1ccc2c([nH]1)CCC(NCCCCCCCCNc1c3c(nc4cc(Cl)ccc14)CCCC3)C2` (configuration not stated), the selectivity ratio in “in vitro” was determined as 3340. Also, the negative-log IC50 (pIC50) at Butyrylcholinesterase is 5.87; in the data set on HepG2, 4.37; against Acetylcholinesterase it was 7.89; in data set [1] it was 5.66.
With `O=c1ccc2c([nH]1)CCC(NCCCCCCCCCNc1c3c(nc4cc(Cl)ccc14)CCCC3)C2` (configuration not stated), the pIC50 at Butyrylcholinesterase is 5.97; in the data set on HepG2 it was 4.45; at Acetylcholinesterase it was 7.54.
Turning to `O=c1ccc2c([nH]1)CCC(NCCCCCNc1c3c(nc4cc(Cl)ccc14)CCCC3)C2` (configuration not stated), the selectivity ratio in “in vitro” stood at 8340. Further, the pIC50 on Butyrylcholinesterase is 6.30; in the data set with HepG2, 4.33; against Acetylcholinesterase, 8.25; in data set [1], 5.12.
Turning to `O=c1ccc2c([nH]1)CCC(NCCCCNc1c3c(nc4cc(Cl)ccc14)CCCC3)C2` (configuration not stated), the pIC50 was 6.46 against Butyrylcholinesterase, 3.96 in the data set with HepG2 and 8.53 on Acetylcholinesterase.
In the case of `O=c1ccc2c([nH]1)CCC(NCCNc1c3c(nc4cc(Cl)ccc14)CCCC3)C2` (configuration not stated), in the data set “in vitro”, the selectivity ratio was found to be 12100. For the same compound, the pIC50 at Butyrylcholinesterase is 6.40; in the data set with HepG2 it was 3.67; against Acetylcholinesterase, 7.75; in [1] it was 5.62.
On the same counts, the results for `O=c1ccc2c([nH]1)CCC(NCCCCCCCCCCNc1c3c(nc4cc(Cl)ccc14)CCCC3)C2` (configuration not stated) are 260, 5.42, 4.76, 7.18 and 5.56.
On the same counts, the results for `O=c1ccc2c([nH]1)CCC(NCCCCCCNc1c3c(nc4cc(Cl)ccc14)CCCC3)C2` (configuration not stated) are 8520, 6.24, 4.29, 8.22 and 4.93.
On to `O=c1ccc2c([nH]1)CCC(NCCCNc1c3c(nc4cc(Cl)ccc14)CCCC3)C2` (configuration not stated), for which the half-life in data set [2] was 7.49 h; in data set [7] it was 7.89 h; in data set [16], 7.16 h; in data set [19] it was 7.8 h. For the same compound, the AUC is 21.86 g/h in data set [3], 279 ng·h/mL in data set [5], 1124.93 g/h in data set [18] and 534.14 g/h in data set [20]. Besides, the Drug uptake entry in data set [4] was “Not Active”. In addition, the MRT inf – broadly, a mean duration of stay, worked out from the concentration-time curve – was determined as 11.1 h in [6], 10.8 h in data set [8], 8.39 h in [9] and 11.1 h in data set [23]. Further, the selectivity ratio in the data set “in vitro” is 119000. The Tmax (in general, the time at which the peak concentration occurs) came out at 2.5 h in [10], 2.25 h in data set [12], 2.75 h in [14] and 1.75 h in [15]. The Cmax (usually the highest concentration seen after dosing) was determined as 68.3 ng/mL in [11], 148 ng/mL in data set [13] and 165 ng/mL in data set [17]. The pIC50 was 6.70 on Butyrylcholinesterase, 3.97 in the data set on HepG2, 9.05 against Acetylcholinesterase and 5.05 in [1]. The result in the data set on Hippocampus and in the data set listed under Mus musculus was Active. In addition, in [21], the inhibition entry was “Active”. Also, in data set [22], the peak level (Cmax at […]) was 4.02 ng/mL. In addition, in data set [24], the AUCt was determined as 246 ng·h/mL.
Compound `COc1cc2c(cc1OC)C(=O)C(CC1CCN(Cc3ccccc3)CC1)C2` (configuration not stated) [DONEPEZIL] had a pIC50 in the data set with HepG2 of 3.58.
